# Laboratory results: patent publication US11377423B2, “Inhibitors of histone deacetylase” (The Broad Institute, Inc., priority 2012, dated 2022)
# Where “and” joins values, the source holds several entries; their conditions need not be identical. Equal values may be shown once. Read-outs that look alike come from different tables or passages of the source.
# Columns and labels:
# HDAC2 [1] = target: T1, HDAC2 (Homo sapiens (Human), UniProt Q92769); experiment: Caliper HDAC enzymatic endpoint assay, HDAC2; type: biochemical
# T1 sequence (Q92769 whole entry): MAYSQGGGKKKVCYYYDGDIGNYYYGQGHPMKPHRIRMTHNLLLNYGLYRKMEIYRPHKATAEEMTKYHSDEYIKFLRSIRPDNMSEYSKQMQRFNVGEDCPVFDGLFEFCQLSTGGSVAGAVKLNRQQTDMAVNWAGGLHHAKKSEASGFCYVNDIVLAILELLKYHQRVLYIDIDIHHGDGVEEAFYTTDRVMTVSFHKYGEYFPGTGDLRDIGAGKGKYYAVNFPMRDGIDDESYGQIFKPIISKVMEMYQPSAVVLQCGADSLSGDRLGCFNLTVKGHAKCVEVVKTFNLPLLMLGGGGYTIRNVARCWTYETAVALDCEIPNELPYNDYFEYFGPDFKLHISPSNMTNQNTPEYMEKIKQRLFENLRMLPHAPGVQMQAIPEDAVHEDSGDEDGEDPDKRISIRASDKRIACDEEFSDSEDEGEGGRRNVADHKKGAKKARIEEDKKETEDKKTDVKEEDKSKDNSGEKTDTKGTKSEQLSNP
# Experimental: (§2) Substrate A was prepared as 2 mM in DMSO. Its final concentration in the assay for HDACs 1, 2, 3, 6 is 2 μM.
# (§3) Below is the HDAC and Substrate concentration used in this assay.
# INS-1E cells = experiment: Insulin gene Ins1 and Ins2 expression by qPCR; type: cell-based, rat; conditions: 10 μM, glucolipotoxicity, 24 h
# Experimental: INS-1E cells (one million/well) were seeded in 6-well plates in 2 mL complete medium. After two days, medium was removed and cells were exposed to 2 mL medium/well with the indicated concentrations of palmitate, glucose, HDAC inhibitors and/or vehicle. RNA was purified (Qiagen) and cDNA synthesis performed done according to manufacturers' guidelines (Applied Biosystems) and real-time PCR performed using the SYBR green method (Applied Biosystems). Each cDNA sample in triplicate was subjected to two individual PCR amplifications either for the gene of interest or the reference gene β-actin. See table below for primer sequences. Compounds of the invention counteract glucolipotoxic reductions in insulin gene […] and […] expression. […] The gene expression in FIGS. 13A and 13B were analyzed by qPCR. […] Glucose-stimulated insulin secretion and total insulin content were assessed by ELISA. Data are presented as fold to CTRL+SEM, n=3-5, ns=not significant, *p<0.05, **p<0.01, ***p<0.001 vs. CTRL, #p<0.05, ##p<0.01, ###p<0.001 vs. respective treatment. ANOVA with Tukey- or Dunnet-corrected test, or Student's t-test (insulin content).
# Human islets = experiment: Glucolipotoxicity-induced apoptosis in human islets, caspase-3 activity assay; type: cell-based; conditions: 10 μM, 0.5 mM palmitate and 25 mM glucose, 72 h
# Excerpt: Human islets were provided by the Integrated Islet Distribution Program administered by the City of Hope Hospital (IIDP: http://iidp.coh.org/). The average reported purity was 85%±5.2 and viability was 94%±0.6 (age 50±5 years, body mass index 31±2.7 kg/m2). Causes of death were head trauma (n=3), stroke and anoxia. Islets were dissociated and seeded (30,000 cells/well) into black optical 96-well plates (Corning Life Sciences) that coated with HTB-9 extracellular matrix as previously described. (Walpita, D., et al. (2012) J. Biomol. Screen. 17, 509-518.) The dissociated islet cell cultures were allowed to attach and grow in CMRL media in 10% FBS for 3 days before exposure to palmitate (0.5 mM) and high glucose (25 mM) in medium with 1% BSA and without FBS for 72 hours.
# (§1) Compounds of the invention protect against combined palmitate and high glucose induced apoptosis in INS-1E cells. […] Apoptosis was measured by caspase-3 activity assay.
# HDAC2 [2] = target: T1, HDAC2; experiment: Kinetics of the inhibition of HDAC2
# [3] = Fear conditioning assay in normal animals; type: in vivo; conditions: wild type normal mouse, single dose
# Excerpt: In one aspect, the invention provides methods and compositions for promoting cognitive function and enhancing learning and memory formation in both normal subjects as well as those suffering from memory loss and cognitive function disorders/impairments. […] A normal subject, as used herein, is a subject that has not been diagnosed with a disorder associated with impaired cognitive function. “Cognitive function” refers to mental processes of a subject relating to information gathering and/or processing; the understanding, reasoning, and/or application of information and/or ideas; the abstraction or specification of ideas and/or information; acts of creativity, problem-solving, and possibly intuition; and mental processes such as learning, perception, and/or awareness of ideas and/or information. The mental processes are distinct from those of beliefs, desires, and the like.
# [4] = tested on: HDACs 1, 2, 3, 4, 5, 6, 7, 8, and 9; experiment: HDAC selectivity panel (Caliper), isoform selectivity; conditions: from IC50 values
# HDAC6 = HDAC6 (Homo sapiens (Human), UniProt Q9UBN7); experiment: Caliper HDAC enzymatic endpoint assay, HDAC6; type: biochemical; conditions: Table 2C; read-out: HDAC6 IC50 after 0 hr preincubation
# Sequence of HDAC6 (Q9UBN7 whole entry): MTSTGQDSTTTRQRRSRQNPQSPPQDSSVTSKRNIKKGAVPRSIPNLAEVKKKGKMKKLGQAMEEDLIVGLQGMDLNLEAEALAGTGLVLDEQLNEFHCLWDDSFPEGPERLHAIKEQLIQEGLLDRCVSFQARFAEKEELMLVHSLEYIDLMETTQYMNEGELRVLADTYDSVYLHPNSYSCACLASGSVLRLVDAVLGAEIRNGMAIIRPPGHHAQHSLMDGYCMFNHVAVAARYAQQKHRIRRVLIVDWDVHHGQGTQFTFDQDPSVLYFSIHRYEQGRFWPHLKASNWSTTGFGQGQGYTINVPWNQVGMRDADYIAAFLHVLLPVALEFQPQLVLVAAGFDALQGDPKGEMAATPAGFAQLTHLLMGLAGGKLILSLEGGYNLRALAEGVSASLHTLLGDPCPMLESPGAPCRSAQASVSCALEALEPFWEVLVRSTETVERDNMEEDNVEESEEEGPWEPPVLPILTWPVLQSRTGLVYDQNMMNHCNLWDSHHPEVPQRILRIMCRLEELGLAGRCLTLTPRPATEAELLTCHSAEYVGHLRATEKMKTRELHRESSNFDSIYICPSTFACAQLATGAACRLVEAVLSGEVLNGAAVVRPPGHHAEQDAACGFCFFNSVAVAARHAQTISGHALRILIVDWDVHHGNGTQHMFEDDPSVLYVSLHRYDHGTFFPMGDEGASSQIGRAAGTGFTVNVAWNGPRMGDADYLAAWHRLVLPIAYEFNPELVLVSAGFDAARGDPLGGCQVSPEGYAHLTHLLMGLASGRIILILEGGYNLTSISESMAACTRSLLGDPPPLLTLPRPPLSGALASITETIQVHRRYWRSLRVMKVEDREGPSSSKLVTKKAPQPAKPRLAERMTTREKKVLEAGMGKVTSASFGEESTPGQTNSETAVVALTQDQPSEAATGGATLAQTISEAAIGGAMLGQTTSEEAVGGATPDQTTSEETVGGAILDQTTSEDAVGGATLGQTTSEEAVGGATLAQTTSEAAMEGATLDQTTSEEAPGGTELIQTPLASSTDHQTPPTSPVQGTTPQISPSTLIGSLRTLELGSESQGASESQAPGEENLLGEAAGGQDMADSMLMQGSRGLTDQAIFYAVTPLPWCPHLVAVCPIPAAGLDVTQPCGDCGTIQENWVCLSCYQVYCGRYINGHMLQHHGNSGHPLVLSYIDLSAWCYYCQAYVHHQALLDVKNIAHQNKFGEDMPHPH
# Experimental: as §2, §3
# HDAC5 = HDAC5 (Homo sapiens (Human), UniProt Q9UQL6); experiment: Caliper HDAC enzymatic endpoint assay, HDAC5; type: biochemical; conditions: Table 2C; read-out: HDAC5 IC50 after 0 hr preincubation
# Sequence of HDAC5 (Q9UQL6 whole entry): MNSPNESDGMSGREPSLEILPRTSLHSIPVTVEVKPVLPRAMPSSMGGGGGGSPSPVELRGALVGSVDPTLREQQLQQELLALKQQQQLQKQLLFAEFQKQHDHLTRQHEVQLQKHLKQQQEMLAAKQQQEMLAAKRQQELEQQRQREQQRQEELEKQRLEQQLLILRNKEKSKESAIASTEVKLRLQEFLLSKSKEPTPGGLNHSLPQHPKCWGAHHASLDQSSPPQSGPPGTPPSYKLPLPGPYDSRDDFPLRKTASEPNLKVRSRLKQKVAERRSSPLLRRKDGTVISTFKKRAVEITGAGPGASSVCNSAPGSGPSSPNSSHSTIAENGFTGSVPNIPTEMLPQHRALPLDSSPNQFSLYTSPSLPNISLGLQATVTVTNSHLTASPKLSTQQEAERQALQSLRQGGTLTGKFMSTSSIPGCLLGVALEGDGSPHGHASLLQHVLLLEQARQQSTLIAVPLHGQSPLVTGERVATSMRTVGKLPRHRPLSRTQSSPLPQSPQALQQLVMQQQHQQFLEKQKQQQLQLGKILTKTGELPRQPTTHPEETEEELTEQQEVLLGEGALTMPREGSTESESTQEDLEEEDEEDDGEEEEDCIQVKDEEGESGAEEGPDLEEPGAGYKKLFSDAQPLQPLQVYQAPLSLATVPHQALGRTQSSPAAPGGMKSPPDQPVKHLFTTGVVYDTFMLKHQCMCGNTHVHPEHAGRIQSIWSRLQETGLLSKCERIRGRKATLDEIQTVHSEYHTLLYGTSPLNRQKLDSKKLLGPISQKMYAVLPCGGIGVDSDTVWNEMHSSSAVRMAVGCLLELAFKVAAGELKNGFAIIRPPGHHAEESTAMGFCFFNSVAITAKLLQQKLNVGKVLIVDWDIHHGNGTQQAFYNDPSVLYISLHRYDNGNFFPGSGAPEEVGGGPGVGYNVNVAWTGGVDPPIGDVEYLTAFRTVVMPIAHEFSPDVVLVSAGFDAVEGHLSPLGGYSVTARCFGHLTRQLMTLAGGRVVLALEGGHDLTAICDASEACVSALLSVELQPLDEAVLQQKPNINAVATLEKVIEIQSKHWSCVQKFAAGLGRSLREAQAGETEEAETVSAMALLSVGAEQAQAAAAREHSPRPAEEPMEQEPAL
# Experimental: The Caliper HDAC Assay Buffer (acronym HAB, 1 liter) was prepared as follows:
# Substrate B was prepared as 2 mM in 100% DMSO. Its final concentration in the assay for HDACs 4, 5, 7, 8, 9 is 2 μM.
# LBH was used as quench inhibitor to stop the reaction at the end point.
# IC50 values are in micromolar.
# Rat islets = experiment: Glucolipotoxicity-induced apoptosis in rat islets, cell death ELISA; type: cell-based; conditions: 10 μM, 0.5 mM palmitate and 25 mM glucose, 60 h
# Experimental: Rat islets (50 islets/well) were cultured in 48-well plates (NUNC) and exposed to palmitate (0.5 mM) and glucose (25 mM) in medium supplemented with 1% FBS and 1% BSA for 60 hours. Cell death was determined in biological duplicates using a cell death ELISA assay (Roche).
# as §1
structure (smiles),measurement,setting,value
"CC(=O)Nc1ccc(C(=O)Nc2ccc(F)cc2N)cc1 [Compound 1, 4-acetamido-N-(2-amino-4-fluorophenyl)benzamide]",IC50,"HDAC2 [1]; read-out: HDAC2 IC50 3 h Prein, Table 2, 3 h preincubation",1.42 µM
same,IC50,"HDAC2 [1]; read-out: HDAC2 IC50 3 h Preinc, Table 2A, 3 h preincubation",1.42 µM
same,IC50,"HDAC2 [1]; read-out: HDAC2 IC50 @3 hr, 3 hr preincubation",1.42 µM
same,insulin gene Ins1 expression,INS-1E cells,partially restoring insulin gene Ins1 expression
same,insulin gene Ins2 expression,INS-1E cells,partially restoring insulin gene Ins2 expression
same,glucolipotoxicity-induced apoptosis in human islets,Human islets,decreases glucolipotoxicity-induced apoptosis in human islets
same,Ki,HDAC2 [2],~6.3 µM
same,koff,HDAC2 [2],0.000867 s⁻¹
same,Ki,HDAC2 [2]; HDAC2,6.3 µM
same,Kon,HDAC2 [2]; HDAC2,"0.0082 min^−1, uM^−1 and ~0.0082 min^−1, uM^−1"
same,koff,HDAC2 [2]; HDAC2,0.000867 s⁻¹
same,type of binding to HDAC2 (words),HDAC2 [2]; HDAC2,fast off inhibitor
same,type of binding to HDAC2 (words),"HDAC2 [2]; HDAC2, listed as compound 1",slow on/fast off rates
same,T1/2,HDAC2 [2]; HDAC2 residence,13 min
same,effect in fear conditioning assay,[3],no effect was observed
same,HDAC isoform selectivity,[4],HDAC3 selective compound
same,IC50,HDAC6,> 33 µM
same,IC50,HDAC5,> 33 µM
same,glucolipotoxicity-induced apoptosis in rat islets,Rat islets,decreases glucolipotoxicity-induced apoptosis in rat islets
